Consider 8 compounds from PubChem BioAssay (NCI).

Among the test systems are CCRF-CEM leukemia; SNB-75 CNS; NCI-H23 lung; MDA-MB-231 breast; OVCAR-8 ovarian; SF-295 CNS; SF-268 CNS; MDA-N; LOX IMVI melanoma; MCF7 breast; TK-10 renal; SN12C renal; HCC-2998 colon; DU-145 prostate; NCI-H226 lung; UACC-62 melanoma; SK-MEL-2 melanoma; EKVX NSCLC; CAKI-1 renal.
What all share (assay): DTP human tumour cell line panel, 48 h

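Test compounds were applied to cells in 96-well plates for 48 hours at 5 doses. At the TGI there is no net growth.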

Turning to `C=CCN(CCN(CC=C)S(=O)(=O)c1ccc(C)cc1)S(=O)(=O)c1ccc(C)cc1`, the TGI with CCRF-CEM leukemia, in the experiment on SNB-75 CNS, in the experiment on NCI-H23 lung, with MDA-MB-231 breast, with OVCAR-8 ovarian and in the experiment on SF-295 CNS was > 100 µM each time. In addition, the TGI in the experiment with SF-268 CNS, with MDA-N, in the experiment on LOX IMVI melanoma, with MCF7 breast, in the experiment with TK-10 renal and in the experiment on SN12C renal was > 100 µM in each case. The TGI in the experiment with HCC-2998 colon, in the experiment with DU-145 prostate and with NCI-H226 lung was > 100 µM in each case.

Regarding `C=CCCC(=O)C(=[N+]=[N-])C(=O)CCC(=O)c1ccccc1`, the TGI with SNB-75 CNS, in the experiment with NCI-H23 lung, in the experiment on MDA-MB-231 breast, with OVCAR-8 ovarian, in the experiment with SF-295 CNS and with UACC-62 melanoma was > 10 µM throughout. In addition, the TGI in the experiment with SF-268 CNS, in the experiment with SK-MEL-2 melanoma, in the experiment on MDA-N, in the experiment on EKVX NSCLC, with LOX IMVI melanoma and in the experiment on MCF7 breast was > 10 µM each time. Moreover, the TGI in the experiment with TK-10 renal, with SN12C renal, in the experiment on DU-145 prostate and in the experiment on NCI-H226 lung was > 10 µM throughout.

Take `C=CCn1c(-c2ccc(Cl)cc2)csc1=Nc1ccccc1OC`: the TGI in the experiment on CCRF-CEM leukemia is > 100 µM; in the experiment with SNB-75 CNS it was > 94.3 µM; in the experiment on NCI-H23 lung it was > 100 µM; in the experiment with MDA-MB-231 breast, > 100 µM; in the experiment on OVCAR-8 ovarian, > 100 µM; in the experiment with SF-295 CNS it was > 79.8 µM. Besides, the TGI with UACC-62 melanoma is > 94 µM; in the experiment with SF-268 CNS it was > 100 µM; in the experiment with SK-MEL-2 melanoma it was > 100 µM; in the experiment with MDA-N, > 59.6 µM; in the experiment on LOX IMVI melanoma it was > 100 µM; in the experiment on MCF7 breast, > 100 µM. For the same compound, the TGI with TK-10 renal, in the experiment on CAKI-1 renal, in the experiment with SN12C renal, in the experiment with HCC-2998 colon, in the experiment on DU-145 prostate and with NCI-H226 lung was > 100 µM each time.

`Cc1cc(N(CCC#N)CCC#N)ccc1/C(N=Nc1ccc([N+](=O)[O-])cc1)=N\NC(=O)c1ccccc1`: the TGI with CCRF-CEM leukemia, in the experiment with SNB-75 CNS, with NCI-H23 lung, with MDA-MB-231 breast, in the experiment on OVCAR-8 ovarian and in the experiment on SF-295 CNS was > 100 µM throughout. The TGI in the experiment on UACC-62 melanoma, with SF-268 CNS, with SK-MEL-2 melanoma, with MDA-N, with EKVX NSCLC and in the experiment with MCF7 breast was > 100 µM in each case. The TGI with TK-10 renal, with CAKI-1 renal, in the experiment with SN12C renal, in the experiment with HCC-2998 colon, in the experiment with DU-145 prostate and in the experiment with NCI-H226 lung was > 100 µM each time.

For `COC(=O)C1(O)C(c2ccccc2)NC2(C)CCCC21` (stereo not drawn), the TGI with CCRF-CEM leukemia, in the experiment with SNB-75 CNS, in the experiment with NCI-H23 lung, in the experiment on MDA-MB-231 breast, in the experiment on OVCAR-8 ovarian and in the experiment on SF-295 CNS was > 100 µM each time. In addition, the TGI in the experiment with UACC-62 melanoma, with SF-268 CNS, in the experiment on SK-MEL-2 melanoma, in the experiment on MDA-N, in the experiment on LOX IMVI melanoma and in the experiment on MCF7 breast was > 100 µM throughout. Besides, the TGI in the experiment on TK-10 renal, with CAKI-1 renal, in the experiment with SN12C renal, in the experiment on DU-145 prostate and in the experiment with NCI-H226 lung was > 100 µM each time.

As to `O=C1/C(=C/c2ccccc2)CCCc2ccccc21`, the TGI in the experiment with CCRF-CEM leukemia is 43.6 µM; in the experiment with SNB-75 CNS, > 100 µM; with NCI-H23 lung, 34.2 µM; with MDA-MB-231 breast, 39.1 µM; with OVCAR-8 ovarian, 45.5 µM; in the experiment with SF-295 CNS it was 35.9 µM. For the same compound, the TGI with UACC-62 melanoma is 28.6 µM; in the experiment on SF-268 CNS it was 32.6 µM; in the experiment on SK-MEL-2 melanoma, 29.9 µM; in the experiment on MDA-N it was 36.7 µM; in the experiment on EKVX NSCLC, 37.3 µM; with LOX IMVI melanoma, 34.9 µM. For the same compound, the TGI with MCF7 breast came out at 41.6 µM; with TK-10 renal, 37.5 µM; in the experiment on CAKI-1 renal, 76.2 µM; in the experiment on SN12C renal it was 33.8 µM; in the experiment on DU-145 prostate, 54.7 µM; in the experiment on NCI-H226 lung, 36.6 µM.

For `Cc1cc(NS(=O)(=O)c2ccc(Nc3c4ccccc4nc4c(C(=O)NCCO)cccc34)cc2)no1`, the TGI with CCRF-CEM leukemia is 75.2 µM; in the experiment on SNB-75 CNS, 53.9 µM; in the experiment with NCI-H23 lung, > 100 µM; in the experiment on MDA-MB-231 breast it was > 100 µM; in the experiment on OVCAR-8 ovarian, > 100 µM; with SF-295 CNS, > 100 µM. In addition, the TGI in the experiment on UACC-62 melanoma was > 100 µM; with SF-268 CNS, > 100 µM; in the experiment on SK-MEL-2 melanoma, 74 µM; in the experiment with MDA-N, > 100 µM; with EKVX NSCLC, > 100 µM; in the experiment on LOX IMVI melanoma, > 100 µM. Further, the TGI was 45.5 µM with MCF7 breast; > 100 µM with TK-10 renal; 88.2 µM in the experiment on CAKI-1 renal; > 100 µM with SN12C renal; > 100 µM with HCC-2998 colon; > 100 µM in the experiment on DU-145 prostate.

Turning to `O=C(NC1(C(=O)O)CCCC1)c1ccccc1`, the TGI in the experiment on CCRF-CEM leukemia, in the experiment on NCI-H23 lung, in the experiment with MDA-MB-231 breast, with OVCAR-8 ovarian, in the experiment with SF-295 CNS and in the experiment with UACC-62 melanoma was > 100 µM each time. The TGI in the experiment with SF-268 CNS, in the experiment on SK-MEL-2 melanoma, with MDA-N, with EKVX NSCLC, in the experiment on LOX IMVI melanoma and in the experiment with MCF7 breast was > 100 µM in each case. Moreover, the total growth inhibition concentration (TGI) with TK-10 renal, in the experiment with CAKI-1 renal, in the experiment with SN12C renal, in the experiment on HCC-2998 colon, in the experiment on DU-145 prostate and with NCI-H226 lung was > 100 µM each time.

Broadly, the TGI is the concentration giving total growth inhibition. Lower therefore signals more potent growth arrest.
